{
  "source": "patent US20040034026A1",
  "about": "“Combination comprising an agent decreasing vegf activity and an agent decreasing egf activity” (priority 2000, published 2004)",
  "key": {"[1]": {"system": "DU145 prostate carcinoma human cell lines", "assay": "DU145 prostate carcinoma human cell lines grown i.d. in nude mice", "type": "in vivo", "method": "DU145 Prostate Carcinoma Human Cell Lines Grown i.d. in Nude Mice\nDU145 prostate carcinoma human cell lines are grown i.d. in nude mice. Tumor cell (10^6) are injected intradermally (i.d.) on the left and right flank of nude mice. Treatment with compounds is started after 25-32 days when tumors reach a size of 80-100 mm^2. At this time animals are sorted into groups with equivalent mean and range of tumor sizes. Treatment is then randomized to the different groups. Tumor size is measured with calipers on a weekly basis.\nAfter 4 weeks of treatment, 50 mg/kg po/day of PTK787 (active ingredient 1) reduces the tumor growth by 74%. 50 mg/kg po/day of the selective EGF receptor tyrosine kinase inhibitor as described in Example 1 of WO 96/33980 (active ingredient 2) reduces tumor growth by 91%. The maximum effects of either agent given alone in this model is stable disease. Simultaneous treatment with both active ingredients (50 mg/kg po/day of each active ingredient) results in tumor regression (25% reduction compared to intial tumor weight).\nAfter 2 weeks of treatment, 50 mg/kg po/day of PTK787 (active ingredient 1) reduces the tumor growth by 41%. 50 mg/kg po/day of the selective EGF receptor tyrosine kinase inhibitor PKI166 reduces tumor growth by 44%. Simultaneous treatment with both active ingredients (50 mg/kg po/day of each active ingredient) reduces the tumor growth by 74%."}, "[2]": {"system": "NeuT transfected HC11 mouse mammary epithelial cells (breast tumors)", "assay": "Mouse breast carcinoma induced by transfection of breast epithelial cells with NeuT (transgenic organ tumor model)", "type": "in vivo", "conditions": "female BALB/c mice, 100 mg/kg of each active ingredient once per day; fraction of tumors", "method": "Treatment of Mouse Breast Carcinoma Induced by Transfection of Breast Epithelial Cells with NeuT (Transgenic Organ Tumor Model)\nThe dual treatment with PTK787 in the form of its succinate salt (active ingredient 1, Example 62 of WO 98/35958) and an EGF receptor tyrosine inhibitor of formula IV wherein q′ is 1, n′ is 0, R^E1 is hydrogen, R^E2 is 3-acetylamino phenyl and R^E6 is methyl (active ingredient 2, Example 22e of WO 97/02266) is performed on a genetically engineered tumor model, which uses “transgenic” organs in normal mice. NeuT (the point mutated rat homolog of erbB-2) transfected HC11 epithelial mouse mammary epithelial cells are transplanted into the gland-free mammary fat pad (cleared fat-pad) of the fourth mammary gland of female BALB/c mice according to an established method (DeOme, Faulkin, et al., Cancer Res. 19: 515-520, 1959). Within 4 to 6 weeks, the transplanted oncogene-transfected mammary epithelial cells develop breast tumors. Tumors are focal and heterogeneous in morphology, and oncogene and other molecular marker expression. Tumors grow rapidly and most of the animals develop breast tumors bilaterally after transplantation. The animals are allocated randomly to three different treatment groups. A first group is treated with 100 mg/kg of active ingredient 1 dosed once per day alone; a second group is treated with 100 mg/kg of active ingredient 2 dosed once per day alone; and a third group is treated with the combination of both active ingredients dosed with 100 mg/kg once per day. […]"}, "[3]": {"conditions": "50 mg/kg po/day of each active ingredient, after 2 weeks of treatment"}, "[4]": {"conditions": "50 mg/kg po/day, after 4 weeks of treatment"}},
  "data": [
    {"smiles": "C[C@@H](Nc1ncnc2[nH]c(-c3ccc(O)cc3)cc12)c1ccccc1", "note": "[PKI166]", "values": [
      {"measurement": "reduction of tumor growth", "setting": "[1]; [3]", "result": 44, "unit": "%"}
    ]},
    {"smiles": "Clc1ccc(Nc2nnc(Cc3ccncc3)c3ccccc23)cc1", "note": "[PTK787]", "values": [
      {"measurement": "tumors with regression", "setting": "[2]", "result": 7, "unit": "%"},
      {"measurement": "tumors with stable disease", "setting": "[2]", "result": 21, "unit": "%"},
      {"measurement": "tumors without response to the treatment", "setting": "[2]", "result": 78, "unit": "%"},
      {"measurement": "reduction of tumor growth", "setting": "[1]; [3]", "result": 41, "unit": "%"},
      {"measurement": "reduction of tumor growth", "setting": "[1]; [4]", "result": 74, "unit": "%"}
    ]},
    {"smiles": "COc1cc2ncnc(Nc3ccc(F)c(Cl)c3)c2cc1OCCCN1CCOCC1", "note": "[Example 1 of WO 96/33980, reference compound]", "values": [
      {"measurement": "reduction of tumor growth", "setting": "[1]; [4]", "result": 91, "unit": "%"}
    ]}
  ]
}
